# Target: T1, hGPR120 (Homo sapiens, UniProt Q5NUL3)
# T1 construct: expressed in transfected cells; host or cells: CHO-K1
# T1 sequence (Q5NUL3 1-361): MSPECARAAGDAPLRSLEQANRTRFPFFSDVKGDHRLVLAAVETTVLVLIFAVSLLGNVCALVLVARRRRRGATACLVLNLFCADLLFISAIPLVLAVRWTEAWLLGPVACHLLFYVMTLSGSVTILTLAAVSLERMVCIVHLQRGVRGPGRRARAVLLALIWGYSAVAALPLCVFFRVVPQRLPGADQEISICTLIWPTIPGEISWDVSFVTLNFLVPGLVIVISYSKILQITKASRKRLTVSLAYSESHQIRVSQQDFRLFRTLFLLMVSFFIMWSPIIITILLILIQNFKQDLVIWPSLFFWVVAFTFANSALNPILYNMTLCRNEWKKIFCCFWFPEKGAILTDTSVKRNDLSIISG
# Assay: Measurement of activity of GPR120 agonist (cell-based calcium fluorescence assay)
# Conditions: CHO-K1 cells expressing Ga16 and hGPR120, Calcium 5 dye fluorescence; activity class; read-out: EC50
# Procedure: CHO-K1 cells expressing Ga16 and hGPR120 were dispensed into each well of a 96-well plate (3×10^4 cells/100 μl/well) and then incubated in 5% CO2, 37° C. incubator for 18 hours. Each well was treated with 100 μl of Calcium 5 dye (Molecular Devices) solution including 2% DMSO and then incubated in 5% CO2, 37° C. incubator for 1 hour. Serially diluted GPR120 agonists were prepared to a final concentration of 0.5% DMSO in a 96-well plate.
# Fluorescence increased by the serially diluted GPR120 agonists is calculated as a relative percent (%) value based on the fluorescence represented by the treatment of 1% DMSO only. […] The calculation of measurement was carried out by using statistical software (Prizm).
# Activity is denoted based on the following criteria: […]
row,SMILES,EC50 [nM]
1,"O=C(O)CCCOc1ccc(-c2cccc(Oc3ccccc3)n2)cc1 [Example 1, 4-[4-(6-phenoxy-2-pyridyl)phenoxy]butyric acid]",200 to 2000
2,"O=C(O)CCCOc1c(F)cc(-c2cccc(Oc3ccccc3)n2)cc1F [Example 3, 4-[2,6-difluoro-4-(6-phenoxy-2-pyridyl)phenoxy]butyric acid]",< 200
3,"CC(C)Sc1cccc(-c2ccc(OCCCC(=O)O)c(Cl)c2)n1 [Example 4, 4-[2-chloro-4-(6-isopropylsulfanyl-2-pyridyl)phenoxy]butyric acid]",200 to 2000
4,"Cc1cc(-c2cccnc2SC2CCC2)cc(C)c1OCCCC(=O)O [Example 10, 4-[4-(2-cyclobutylsulfanyl-pyridin-3-yl)-2,6-dimethyl-phenoxy]-butyric acid]",< 200
5,"CCC(C)Sc1ncccc1-c1cc(F)c(OCCCC(=O)O)c(F)c1 (stereo not shown) [Example 13, 4-[4-(2-sec-butylsulfanyl-pyridin-3-yl)-2,6-difluoro-phenoxy]-butyric acid]",200 to 2000
6,"O=C(O)CCCOc1ccc(-c2cccc(OC3CCCC3)c2)c(F)c1F [Example 14, 4-[4-[3-(cyclopentoxy)phenyl]-2,3-difluoro-phenoxy]butyric acid]",200 to 2000
7,"O=C(O)CCCOc1c(F)cc(-c2cccc(N3CCCCC3)n2)cc1F [Example 15, 4-[2,6-difluoro-4-[6-(1-piperidyl)-2-pyridyl]phenoxy]butyric acid]",200 to 2000
8,"CN(c1ccccc1)c1cccc(-c2cc(F)c(OCCCC(=O)O)c(F)c2)n1 [Example 17, 4-[2,6-difluoro-4-[6-(N-methylanilino)-2-pyridyl]phenoxy]butyric acid]",200 to 2000
9,"CCCOc1cccc(-c2cc(F)c(OCCCC(=O)O)c(F)c2)n1 [Example 23, 4-[2,6-difluoro-4-(6-propoxy-2-pyridyl)phenoxy]butyric acid]",< 200
10,"O=C(O)CCCOc1c(F)cc(-c2cccc(OC3CCC3)n2)cc1F [Example 25, 4-[4-[6-(cyclobutoxy)-2-pyridyl]-2,6-difluoro-phenoxy]butyric acid]",< 200
11,"Cc1cc(-c2cccc(OC3CCC3)n2)ccc1OCCCC(=O)O [Example 26, 4-[4-[6-(cyclobutoxy)-2-pyridyl]-2-methyl-phenoxy]butyric acid]",< 200
12,"O=C(O)CCCOc1ccc(-c2cccc(OC3CCC3)n2)cc1C(F)(F)F [Example 27, 4-[4-[6-(cyclobutoxy)-2-pyridyl]-2-(trifluoromethyl)phenoxy]butyric acid]",< 200
13,"CC(CCC(=O)O)Oc1c(F)cc(-c2cccc(OC3CCC3)n2)cc1F (stereo not shown) [Example 29, 4-[4-[6-(cyclobutoxy)-2-pyridyl]-2,6-difluoro-phenoxy]pentanoic acid]",< 200
14,"CC(CCC(=O)O)Oc1ccc(-c2cccnc2SC2CCC2)cn1 (stereo not shown) [Example 30, 4-[[5-(2-cyclobutylsulfanyl-3-pyridyl)-2-pyridyl]oxy]pentanoic acid]",> 20000
15,"CC(C)CCSc1ncccc1-c1cc(F)c(OCCCC(=O)O)c(F)c1 [Example 31, 4-{2,6-difluoro-4-[2-(3-methyl-butylsulfanyl)-pyridin-3-yl]-phenoxy}-butyric acid]",200 to 2000
16,"O=C(O)CCCOc1ccc(-c2cccc(OC3CCC3)c2)nc1 [Example 35, 4-[[6-[3-(cyclobutoxy)phenyl]-3-pyridyl]oxy]butyric acid]",200 to 2000
17,"O=C(O)CCCOc1ccc(-c2cccc(OC3CCCC3)c2)nc1 [Example 36, 4-[[6-[3-(cyclopentoxy)phenyl]-3-pyridyl]oxy]butyric acid]",200 to 2000
18,"CC(C)Sc1ncccc1-c1cc(F)c(OCCCC(=O)O)c(F)c1 [Example 41, 4-[2,6-difluoro-4-(2-isopropylsulfanyl-pyridin-3-yl)-phenoxy]-butyric acid]",200 to 2000
19,"CC(C)Oc1ncccc1-c1cc(F)c(OCCCC(=O)O)c(F)c1 [Example 43, 4-[2,6-difluoro-4-(2-isopropoxy-pyridin-3-yl)-phenoxy]-butyric acid]",200 to 2000
20,"O=C(O)CCCOc1c(F)cc(-c2cccnc2OC2CCCC2)cc1F [Example 44, 4-[4-(2-cyclopentyloxy-pyridin-3-yl)-2,6-difluoro-phenoxy]-butyric acid]",< 200
21,"O=C(O)CCCOc1c(F)cc(-c2cccnc2SCC2CC2)cc1F [Example 47, 4-[4-(2-cyclopropylmethylsulfanyl-pyridin-3-yl)-2,6-difluoro-phenoxy]-butyric acid]",< 200
22,"O=C(O)CCCOc1ccc(-c2cccnc2SC2CCC2)cc1 [Example 48, 4-[4-(2-cyclobutylsulfanyl-pyridin-3-yl)-phenoxy]-butyric acid]",< 200
23,"CC(C)Oc1ccccc1-c1cc(F)c(OCCCC(=O)O)c(F)c1 [Example 52, 4-(3,5-difluoro-2′-isopropoxy-biphenyl-4-yloxy)-butyric acid]",200 to 2000
24,"O=C(O)CCCOc1c(F)cc(-c2ccccc2OC2CCC2)cc1F [Example 53, 4-(2′-cyclobutoxy-3,5-difluoro-biphenyl-4-yloxy)-butyric acid]",< 200

# Results, then the compound that gave them:
row,EC50 [nM],SMILES
1,< 200,"CC(C)Sc1cccc(-c2cc(F)c(OCCCC(=O)O)c(F)c2)n1 [Example 2, 4-[2,6-difluoro-4-(6-isopropylsulfanyl-2-pyridyl)phenoxy]butyric acid]"
2,200 to 2000,"CC(C)Sc1cccc(-c2ccc(OCCCC(=O)O)c(F)c2)n1 [Example 5, 4-[2-fluoro-4-(6-isopropylsulfanyl-2-pyridyl)phenoxy]butyric acid]"
3,< 200,"O=C(O)CCCOc1c(F)cc(-c2cccc(SC3CCCC3)n2)cc1F [Example 6, 4-[4-(6-cyclopentylsulfanyl-2-pyridyl)-2,6-difluoro-phenoxy]butyric acid]"
4,2000 to 20000,"COc1cc(-c2cccnc2SC2CCC2)ccc1OCCCC(=O)O [Example 7, 4-[4-(2-cyclobutylsulfanyl-pyridin-3-yl)-2-methoxy-phenoxy]-butyric acid]"
5,> 20000,"CC(C)Sc1cc(-c2cc(F)c(OCCCC(=O)O)c(F)c2)ccn1 [Example 8, 4-[2,6-difluoro-4-(2-isopropylsulfanyl-4-pyridyl)phenoxy]butyric acid]"
6,< 200,"O=C(O)CCCOc1c(F)cc(-c2cccc(N3CCCC3)n2)cc1F [Example 12, 4-[2,6-difluoro-4-(6-pyrrolidin-1-yl-2-pyridyl)phenoxy]butyric acid]"
7,200 to 2000,"O=C(O)CCCOc1c(F)cc(-c2cccc(Nc3ccccc3)n2)cc1F [Example 16, 4-[4-(6-anilino-2-pyridyl)-2,6-difluoro-phenoxy]butyric acid]"
8,< 200,"O=C(O)CCCOc1c(F)cc(-c2cccc(SC3CCC3)n2)cc1F [Example 20, 4-[4-(6-cyclobutylsulfanyl-2-pyridyl)-2,6-difluoro-phenoxy]butyric acid]"
9,< 200,"CCCSc1cccc(-c2cc(F)c(OCCCC(=O)O)c(F)c2)n1 [Example 21, 4-[2,6-difluoro-4-(6-propylsulfanyl-2-pyridyl)phenoxy]butyric acid]"
10,< 200,"O=C(O)CCCOc1c(F)cc(-c2cccc(OCC3CC3)n2)cc1F [Example 24, 4-[4-[6-(cyclopropylmethoxy)-2-pyridyl]-2,6-difluoro-phenoxy]butyric acid]"
11,< 200,"CC(CCC(=O)O)Oc1c(F)cc(-c2cccnc2SC2CCC2)cc1F (stereo not shown) [Example 28, 4-[4-(2-cyclobutylsulfanyl-3-pyridyl)-2,6-difluoro-phenoxy]pentanoic acid]"
12,> 20000,"O=C(O)CCCOc1c(F)cc(-c2cccnc2OCCF)cc1F [Example 32, 4-{2,6-difluoro-4-[2-(2-fluoro-ethoxy)-pyridin-3-yl]-phenoxy}-butyric acid]"
13,200 to 2000,"O=C(O)CC1(COc2c(F)cc(-c3cccnc3SC3CCC3)cc2F)CC1 [Example 33, 2-[1-[[4-(2-cyclobutylsulfanyl-3-pyridyl)-2,6-difluoro-phenoxy]methyl]cyclopropyl]acetic acid]"
14,< 200,"O=C(O)CCCOc1ccc(-c2ccccc2Oc2ccccc2)cc1 [Example 37, 4-(2′-phenoxy-biphenyl-4-yloxy)-butyric acid]"
15,200 to 2000,"CC(C)Sc1ncccc1-c1ccc(OCCCC(=O)O)cc1 [Example 38, 4-[4-(2-isopropylsulfanyl-pyridin-3-yl)-phenoxy]-butyric acid]"
16,< 200,"O=C(O)CCCOc1c(F)cc(-c2ccccc2Oc2ccccc2)cc1F [Example 39, 4-(3,5-difluoro-2′-phenoxy-biphenyl-4-yloxy)-butyric acid]"
17,200 to 2000,"O=C(O)CCCOc1c(F)cc(-c2cccnc2OCC2CC2)cc1F [Example 46, 4-[4-(2-cyclopropylmethoxy-pyridin-3-yl)-2,6-difluoro-phenoxy]-butyric acid]"
18,200 to 2000,"O=C(O)CCCOc1ccc(-c2cccnc2SCC2CC2)cc1 [Example 49, 4-[4-(2-cyclopropylmethylsulfanyl-pyridin-3-yl)-phenoxy]-butyric acid]"
19,< 200,"CCCSc1ncccc1-c1ccc(OCCCC(=O)O)cc1 [Example 51, 4-[4-(2-propylsulfanyl-pyridin-3-yl)-phenoxy]-butyric acid]"
